We go through 13 molecules from ChEMBL document CHEMBL1122834, “Synthesis and in vitro pharmacology of 7-oxabicyclo[2.2.1]heptane analogues of thromboxane A2/PGH2” (J Med Chem, 1985).

For assay [1], the species on record is Cavia porcellus. Kind of assay: Selectivity against 9,11-AZO-PGH2 induced contractions of smooth muscle guinea pig trachea. It is filed as functional.
Assay [2] is filed under the species Cavia porcellus. Nature of the assay: Selectivity against histamine in smooth muscle of guinea pig trachea stimulated with histamine. Format: functional. Particulars: Muscle tissue.
Assay [3] is filed under the species Homo sapiens. Nature of the assay: Inhibitory activity against aggregation of human platelet induced by adenosine diphosphate. It is filed as functional.
The species named for assay [4] is Homo sapiens. Nature of the assay: Inhibitory activity against aggregation of human platelet induced by arachidonic acid. It is filed as functional. The conditions noted are these: read-out: I50.
The species named for assay [5] is Homo sapiens. Kind of assay: Inhibitory activity against aggregation of human platelet induced by epinephrine 1. It is filed as functional.
Assay [6] is filed under the species Homo sapiens. Kind of assay: Inhibitory activity against aggregation of human platelet induced by epinephrine 2. It is filed as functional.
The species named for assay [7] is Rattus norvegicus. Nature of the assay: Direct effect on rat stomach strip (RSS) preparation. Format: functional.
The target of assay [8] is T1, Thromboxane-A synthase (Homo sapiens, UniProt P24557).
T1 sequence (P24557 whole entry): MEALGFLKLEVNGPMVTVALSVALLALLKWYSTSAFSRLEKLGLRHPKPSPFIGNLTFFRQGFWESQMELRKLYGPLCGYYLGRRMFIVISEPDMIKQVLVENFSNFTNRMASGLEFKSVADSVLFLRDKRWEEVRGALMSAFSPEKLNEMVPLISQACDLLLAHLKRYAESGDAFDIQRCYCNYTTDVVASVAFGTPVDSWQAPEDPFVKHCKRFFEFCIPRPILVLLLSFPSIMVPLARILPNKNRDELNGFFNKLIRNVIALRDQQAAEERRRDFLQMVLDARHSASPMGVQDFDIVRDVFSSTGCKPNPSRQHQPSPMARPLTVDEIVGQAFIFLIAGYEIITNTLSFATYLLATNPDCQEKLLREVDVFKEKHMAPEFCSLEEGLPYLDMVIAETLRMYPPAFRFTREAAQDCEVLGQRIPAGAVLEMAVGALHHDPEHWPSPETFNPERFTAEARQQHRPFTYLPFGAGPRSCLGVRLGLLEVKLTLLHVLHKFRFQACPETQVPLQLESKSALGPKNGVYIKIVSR
Kind of assay: Inhibition of human platelet Thromboxane synthetase. The conditions noted are these: read-out: I50.

The species entered for assay [9] is Homo sapiens. Kind of assay: Stimulatory activity against aggregation of human platelet induced by adenosine diphosphate. It is filed as functional.
The species named for assay [10] is Homo sapiens. Nature of the assay: Stimulatory activity against aggregation of human platelet induced by arachidonic acid. Format: functional.
The species entered for assay [11] is Homo sapiens. Nature of the assay: Stimulatory activity against aggregation of human platelet induced by epinephrine 1. Format: functional.
The species entered for assay [12] is Homo sapiens. Nature of the assay: Stimulatory activity against aggregation of human platelet induced by epinephrine 2. Format: functional.
Assay [13] has as its target T1, Thromboxane-A synthase. Kind of assay: Inhibitory activity against human platelet Thromboxane synthetase. The conditions noted are these: read-out: I 50.
Assay [14] is filed under the species Homo sapiens. Nature of the assay: stimulatory activity against aggregation of human platelet induced by epinephrine 2. It is filed as functional.
Assay [15] is filed under the species Homo sapiens. Nature of the assay: stimulatory activity against aggregation of human platelet induced by adenosine diphosphate. Format: functional.
Assay [16] is filed under the species Homo sapiens. Kind of assay: stimulatory activity against aggregation of human platelet induced by arachidonic acid. Format: functional.
For assay [17], the species on record is Homo sapiens. Kind of assay: stimulatory activity against aggregation of human platelet induced by epinephrine 1. Format: functional.
Assay [18] has as its target T2, Thromboxane-A synthase (Homo sapiens) (UniProt P24557).
T2 sequence (whole entry): T1 sequence (P24557 whole entry)
Particulars: 1000 uM.
Description: Inhibitory activity against human platelet Thromboxane synthetase at a dose of 1000 uM

With `CCCCC[C@H](O)/C=C/[C@@H]1C2CCC(O2)[C@@H]1C/C=C\CCCC(=O)O` (stereo in doubt; 3b), the IC50 was 120 nM in assay [1] (read-out: I50); above 10 µM in assay [2] (read-out: I50); 0.31 mM in assay [3] (read-out: I50); 0.6 µM in assay [4]; 0.67 mM in assay [5] (read-out: I50); 7.5 µM in assay [6] (read-out: I50). Also, the IC50 in assay [8] turned out to be 1 mM. The A50 in [7] is 0.4 µM.
With `CCCCC[C@H](O)/C=C/[C@@H]1C2CCC(O2)[C@@H]1C/C=C\CCCC(=O)O` (stereo in doubt; 2c), the IC50 in [3] (read-out: I50) is above 1 mM; in assay [4], 310 µM; in [5] (Homo sapiens, read-out: I50), above 1 mM; in assay [6] (Homo sapiens, read-out: I50), 6 µM; in [8] it was above 1 mM.
Regarding `CCCCC[C@@H](O)/C=C/[C@H]1C2CCC(O2)[C@@H]1C/C=C\CCCC(=O)O` (stereo in doubt; 4d), the IC50 in assay [3] (Homo sapiens, read-out: I50) was above 1 mM; in [4], 1000 µM; in assay [5] (Homo sapiens, read-out: I50) it was 0.67 mM; in assay [6] (read-out: I50) it was 140 µM; in assay [8], 0.47 mM.
In the case of `CCCCC[C@H](O)/C=C/[C@H]1C2CCC(O2)[C@H]1C/C=C\CCCC(=O)O` (stereo partly specified), the IC50 was 2100 nM in [1] (read-out: I50); above 10 µM in assay [2] (read-out: I50); above 1 mM in assay [3] (Homo sapiens, read-out: I50); 9.2 µM in assay [4] (Homo sapiens); above 1 mM in assay [5] (Homo sapiens, read-out: I50); 0.6 µM in assay [6] (Homo sapiens, read-out: I50). For the same molecule, the IC50 in assay [8] is above 1 mM. The A50 came out at 20 µM in assay [9]; 20 µM in assay [10]; 20 µM in assay [11]; 20 µM in assay [12]; 0.22 µM in assay [7].
Regarding `CCCCC[C@@H](O)/C=C/[C@H]1C2CCC(O2)[C@H]1C/C=C\CCCC(=O)O` (stereo in doubt; 3d), the IC50 came to 93 µM in [4] and 170 µM in [6] (read-out: I50).
`CCCCC[C@@H](O)/C=C/[C@@H]1C2CCC(O2)[C@@H]1C/C=C\CCCC(=O)O` (stereo in doubt; 2d): the IC50 in assay [3] (Homo sapiens, read-out: I50) is above 1 mM; in assay [4] (Homo sapiens), 140 µM; in [8], 0.56 mM.
Regarding `CCCCC[C@@H](O)/C=C/[C@@H]1C2CCC(O2)[C@H]1C/C=C\CCCC(=O)O` (stereo in doubt; 4a), the IC50 in assay [1] (read-out: I 50) was 65000 nM; in assay [2] (read-out: I 50), above 10 µM; in assay [3] (read-out: I 50), 0.15 mM; in assay [4], 4.2 µM; in assay [5] (read-out: I 50), above 1 mM; in assay [6] (read-out: I 50) it was 10 µM. Further, the IC50 in assay [13] amounted to 770 µM. Further, the A50 in [7] is 0.51 µM.
On to `CCCCC[C@@H](O)/C=C/[C@H]1C2CCC(O2)[C@H]1C/C=C\CCCC(=O)O` (stereo in doubt; 2b), for which the IC50 in assay [1] (read-out: I50) was above 10000 nM; in [2] (read-out: I50), above 10 µM; in assay [3] (Homo sapiens, read-out: I50), above 1 mM; in assay [4], 360 µM; in assay [5] (Homo sapiens, read-out: I50), above 1 mM; in assay [6] (Homo sapiens, read-out: I50), 130 µM. Also, in [8], the IC50 is above 1 mM. In addition, the A50 in assay [7] is above 10 µM.
Consider `CCCCC[C@@H](O)/C=C/[C@H]1C2CCC(O2)[C@@H]1C/C=C\CCCC(=O)O` (stereo in doubt; 5b), for which the IC50 is 4900 nM in assay [1] (read-out: I50); above 10 µM in [2] (read-out: I50); 9.5 µM in assay [4]; above 1 mM in assay [5] (read-out: I50); 0.7 µM in assay [6] (read-out: I50); above 1 mM in assay [8]. Moreover, the A50 in assay [7] was 0.88 µM.
As for `CCCCC[C@@H](O)/C=C/[C@@H]1C2CCC(O2)[C@H]1C/C=C\CCCC(=O)O` (stereo in doubt; 5d), the IC50 in assay [3] (Homo sapiens, read-out: I50) was above 1 mM; in [4] it was 95 µM; in assay [5] (Homo sapiens, read-out: I50) it was above 1 mM; in assay [6] (Homo sapiens, read-out: I50), 52 µM; in [8], above 1 mM.
Regarding `CCCCC[C@@H](O)/C=C/[C@@H]1C2CCC(O2)[C@@H]1C/C=C\CCCC(=O)O` (stereo in doubt; 3a), the results for the IC50 in [1] (read-out: I50), in assay [2] (read-out: I50) and in assay [8] were above 10000 nM, above 10 µM and 1 mM, respectively. Further, the A50 in assay [14] is 2 µM; in assay [15], 2 µM; in assay [16], 2 µM; in [17], 2 µM; in assay [7] it was 0.0015 µM.
As for `CCCCC[C@H](O)/C=C/[C@@H]1C2CCC(O2)[C@H]1C/C=C\CCCC(=O)O` (stereo partly specified), the IC50 in assay [1] (read-out: I50) was determined as 340 nM; in assay [2] (read-out: I50), 2.4 µM; in assay [3] (Homo sapiens, read-out: I50) it was 0.0016 mM; in assay [4] (Homo sapiens), 0.3 µM; in assay [5] (Homo sapiens, read-out: I50), 0.0022 mM; in assay [6] (Homo sapiens, read-out: I50), 4.2 µM. Besides, the IC50 in [8] worked out at 1 mM. The A50 in assay [9] was 30 µM; in [10], 30 µM; in assay [11] it was 30 µM; in assay [12], 30 µM; in assay [7] it was 2.9 µM.
For the molecule `CCCCC[C@H](O)/C=C/[C@H]1C2CCC(O2)[C@@H]1C/C=C\CCCC(=O)O` (stereo partly specified), the IC50 in [1] (read-out: I50) was 2200 nM; in [2] (read-out: I50), above 10 µM; in assay [3] (Homo sapiens, read-out: I50), above 1 mM; in assay [4] (Homo sapiens) it was 23 µM; in assay [5] (Homo sapiens, read-out: I50) it was above 1 mM; in assay [6] (Homo sapiens, read-out: I50), 56 µM. The IC50 in [8] is above 1 mM. Moreover, the A50 stood at 0.26 µM in [9]; 0.26 µM in assay [10]; 0.26 µM in [11]; 0.26 µM in assay [12]; 0.0009 µM in assay [7]. Also, the inhibition (commonly the share of the control response that was lost under treatment) in [18] is 71%.
